Values joined by “and” are separate entries in the source; they are usually repeats but may differ in a detail not shown here. Identical values can stand only once. No end group written: not given here.
Experiments:
HLA-A1 (A*0101) = HLA-A1 (A*0101) (Homo sapiens, UniProt P04439, A114D/A174V/A182V/D101N/D185E/E176A/E190D/L180R/Q94H/R68K/S129P/T187R/V100A/V91M/W191G); test: biochemical; assay type: binding
A*2601 = A*2601 (Homo sapiens, UniProt P04439, A114D/A173T/A270S/D101N/D185E/E277Q/E87N/F33Y/G231S/I121R/I218V/K168Q/L180W/L300P/L318F/P208A/P217A/Q86R/Q94H/R138Q/S129P/T187R/T323A/T345S/V100A/V358M); test: biochemical; assay type: binding
A*2902 = A*2902 (Homo sapiens, UniProt P04439, A270S/D101N/D185E/E176V/E277Q/E87Q/F33T/G231S/H175R/I121M/I218V/I322F/K168Q/L300P/L318F/M331R/P208A/P217A/Q86L/T323A/T345S/V100A/V358M); test: biochemical; assay type: binding
HLA-A*0201 (HLA-A2.1) = HLA-A*0201 (HLA-A2.1) (Homo sapiens, UniProt P04439, D140Y/D185E/D98H/E176V/E277Q/G131W/G231S/I119V/I121R/I166T/I218V/L300P/L318F/N151K/N90K/P208A/P217A/Q86G/Q94H/R138H/R169H/T345S); test: biochemical; assay type: binding
HLA-A24 = assay type: binding, human
A2.1 HLA molecules = A2.1 HLA molecules (Homo sapiens, UniProt P04439, D140Y/D185E/D98H/E176V/E277Q/G131W/G231S/I119V/I121R/I166T/I218V/L300P/L318F/N151K/N90K/P208A/P217A/Q86G/Q94H/R138H/R169H/T345S); assay type: binding; design: A*0201 / A2.1 Binding / A2 Bind. / A2 / A2.1 (binding capacity): scale not given here

Row | Substance | binding to HLA-A2.1 (column 3; no allele head shown for these rows) (HLA-A*0201 (HLA-A2.1)) | binding to HLA-A24 (column 6; no allele head shown for these rows) (HLA-A24) | other results
1 | TTEPEAQNTTY [Peptide 9012.0166] | – | – | IC50 (HLA-A1 (A*0101)): 2.1 nM; IC50 (A*2601): 530 nM; IC50 (A*2902): 1330 nM
2 | VLVTCLGL | 0.0010 | 0 | –
3 | IMPKTGFLII | 0.0007 | 0.050 | –
4 | KMVELVHFLL | 0.071 | 0.0008 | A2 (A2.1 HLA molecules): 0.2200; A2 Bind. (A2.1 HLA molecules): 0.1100
5 | ILLWQPIPV | 1.4 | 0 | –
6 | KAEMLESVI | 0 | <0.0002 | –
7 | ALGLVCVQAA | 0.0002 | 0 | –
8 | GASSFSTTI | 0 | 0.0002 | –
9 | DSVQILVGY [Peptide 86.0147] | – | – | IC50 (HLA-A1 (A*0101)): 1930 nM; IC50 (A*2601): 2.8 nM
10 | GLVCVQAA | 0.0008 | 0 | –
11 | ALAETSYVK | 0.0002 | 0 | –
12 | FLIIVLVMIAM | 0.0041 and 0.0031 | 0.0011 | –
13 | EALEAQQEAL | 0 | 0 | –
14 | FLWGPRALA | 0.042 and 0.027 | 0 | A2 (A2.1 HLA molecules): 0.0420; A2 Bind. (A2.1 HLA molecules): 0.0420
15 | LAETSYVKVL | 0 | <0.0002 | –
16 | SAYGEPRKL | 0.0002 | <0.0002 | –
17 | KMVELVHFL | 0.13 | 0.0043 | A2.1 (HLA-A*0201 (HLA-A2.1)): 0.16; A2 Bind. (A2.1 HLA molecules): 0.1600
18 | KAEMLESVL | 0 | 0 | –
19 | SLQLVFGI | 0.0094 | 0 | –
20 | MTETLNNTEY [Peptide 1593.15] | – | – | IC50 (HLA-A1 (A*0101)): 77 nM; IC50 (A*2601): 1620 nM; IC50 (A*2902): 471 nM
21 | VIPHAMSSCGV | 1.4 | 0 | –
22 | KVADLVGFLL | 0.041 | 0.0070 | A2 Bind. (A2.1 HLA molecules): 0.0560
23 | VADLVGFLL | 0.0011 | 0.0007 | –

Row | Substance | binding to HLA-A2.1 (column 3; no allele head shown for these rows) (HLA-A*0201 (HLA-A2.1)) | binding to HLA-A24 (column 6; no allele head shown for these rows) (HLA-A24) | other results
24 | FLLLKYRA | 0.0007 | 0 | –
25 | KVLEYVIKV | 0.095 | 0 | A2 Bind. (A2.1 HLA molecules): 0.0900
26 | GASSLPTTM | 0 | 0.0010 | –
27 | GLVCVQAAT | 0.0007 | 0.0001 | –
28 | QAATSSSSPL | 0 | <0.0002 | –
29 | VTDSRNTKY [Peptide 1580.30] | – | – | IC50 (HLA-A1 (A*0101)): 25 nM; IC50 (A*2601): > 20000 nM; IC50 (A*2902): > 20000 nM
30 | YVIKVSARV | 0.018 | 0 | A2 Bind. (A2.1 HLA molecules): 0.0140
31 | VMIAMEGGHA | 0.0023 | 0 | A2 Bind. (A2.1 HLA molecules): 0.0360
32 | VADLVGFLLL | 0.0008 | 0.0003 | –
33 | ALAETSYVKV | 0.017 | 0 | A2 (A2.1 HLA molecules): 0.0150; A2 Bind. (A2.1 HLA molecules): 0.0150
34 | IVEGQVDYY [Peptide 1580.29] | – | – | IC50 (HLA-A1 (A*0101)): 188 nM; IC50 (A*2601): > 20000 nM; IC50 (A*2902): > 20000 nM
35 | CTDKILEHY [Peptide 1593.14] | – | – | IC50 (HLA-A1 (A*0101)): 110 nM; IC50 (A*2601): > 20000 nM; IC50 (A*2902): > 20000 nM
36 | EMLESVIKN | – | – | A2.1 (HLA-A*0201 (HLA-A2.1)): <0.0002; A24 (HLA-A24): 0
37 | SLQLVFGIDV | 0.0047 | 0.0001 | –
38 | ATCVSHRGLY [Peptide 1580.22] | – | – | IC50 (A*2601): 492 nM; IC50 (A*2902): 4210 nM
39 | VSEFRWYRY [Peptide 1549.02] | – | – | IC50 (HLA-A1 (A*0101)): 33 nM; IC50 (A*2601): > 20000 nM; IC50 (A*2902): 1520 nM
40 | CILESLFRA | 0.073 | 0 | A2 Bind. (A2.1 HLA molecules): 0.0460
41 | LTDKILDHY [Peptide 1593.16] | – | – | IC50 (HLA-A1 (A*0101)): 3.1 nM; IC50 (A*2601): 804 nM; IC50 (A*2902): 4420 nM
42 | ALREEEEGV | 0.0056 | 0 | A2 Bind. (A2.1 HLA molecules): 0.0210
43 | ETSYVKVLEY | 0 | 0 | –
44 | RALAETSYV | 0.014 | 0 | A2 (A2.1 HLA molecules): 0.0100; A2 Bind. (A2.1 HLA molecules): 0.0100
45 | IMPKTGFLI | 0.0035 | 3.2 | –
46 | AATSSSSPL | 0 | <0.0002 | –

Row | Substance | binding to HLA-A2.1 (column 3; no allele head shown for these rows) (HLA-A*0201 (HLA-A2.1)) | binding to HLA-A24 (column 6; no allele head shown for these rows) (HLA-A24) | other results
47 | QTEPDTSNY [Peptide 1549.44] | – | – | IC50 (A*2601): 4980 nM; IC50 (A*2902): > 20000 nM
48 | VAELVHFLL | 0 | 0.039 | –
49 | VLGTLEEV | 0.0088 | 0 | –
50 | YLEYGRCRTV | 0.0097 | 0 | –
51 | KALKFYSKI [Peptide E6-72] | – | – | binding class for HLA-A24 (HLA-A24): high affinity (key: high affinity: >0.1; intermediate affinity: 0.1-0.01; low affinity: 0.01-0.001)
52 | VAELVHFLLL | – | 0.0018 | –
53 | ILESLFRA | 0.0017 | 0.0011 | –
54 | EAQQEALGL | 0 | <0.0002 | –
55 | LVLGTLEEV | 0.032 | 0.0003 | A2 (A2.1 HLA molecules): 0.0320; A2 Bind. (A2.1 HLA molecules): 0.0320; A2.1 relative binding (ratio of binding of test peptide relative to standard peptide) (A2.1 HLA molecules): 0.032
56 | KVADLVGFL | 0.0091 | 0 | –
57 | ISDYRHYCY [Peptide 1571.26] | – | – | IC50 (HLA-A1 (A*0101)): 9.4 nM; IC50 (A*2601): > 20000 nM; IC50 (A*2902): 9.9 nM
58 | QIMPKTGFLII | 0.0003 | 0.0030 | –
59 | STDLRDHIDY [Peptide 1580.18] | – | – | IC50 (HLA-A1 (A*0101)): 25 nM; IC50 (A*2601): 9580 nM; IC50 (A*2902): > 20000 nM
60 | MLESVIKNYK | 0 | 0 | –
61 | GLLGDNQIM | 0.0054 | 0.0002 | A2.1 (HLA-A*0201 (HLA-A2.1)): 0.0051
62 | ETDEEITGYLY [Peptide 9012.0180] | – | – | IC50 (HLA-A1 (A*0101)): 6.4 nM; IC50 (A*2601): 27 nM; IC50 (A*2902): 277 nM
63 | SAYGEPRKLL | 0 | 0.0008 | –
64 | F185.01 (LYSACFWWL) [Peptide F185.01] | – | – | IC50 (HLA-A24; read-out: A*2402): 28 nM
65 | KVAELVHFL | 0.073 | 0.0005 | –
66 | GASAFPTTI | 0 | <0.0002 | –
67 | EIWEELSVMEV | 0.013 | 0 | –
68 | AAISRKMVEL | 0 | 0 | –
